The target of the assay is T1, human β3 adrenergic receptor (Homo sapiens, UniProt P13945).
T1 construct: expressed in transfected cells; host or cells: Chinese hamster ovary (CHO) cells, stably transfected
Description: Functional Assay: cAMP production in CHO cells stably transfected with cloned β3-adrenergic receptor (LANCE). In kind it is cell-based. As to conditions: CHO cells expressing β3 receptor. The method, then:
Functional Assay: cAMP production in response to ligand is measured according to Barton et al (1991, Agonist-induced desensitization of D2 dopamine receptors in human Y-79 retinoblastoma cells. Mol. Pharmacol. […]) modified as follows. cAMP production is measured using a homogenous time-resolved fluorescence resonance energy transfer immunoassay (LANCE™, Perkin Elmer) according to the manufacture's instructions. Chinese hamster ovary (CHO) cells, stably transfected with the cloned β-adrenergic receptor (β1, β2 or β3) are harvested after 3 days of subculturing. Harvesting of cells is done with Enzyme-free Dissociation Media (Specialty Media). Cells are then counted and resuspended in assay buffer (Hank's Balanced salt solution supplemented with 5 mM HEPES, 0.1% BSA) containing a phosphodiesterase inhibitor (IBMX, 0.6 mM). The reaction is initiated by mixing 6,000 cells in 6 μL with 6 μL Alexa Fluor labeled cAMP antibody (LANCE™ kit) which is then added to an assay well containing 12 ul of compound (diluted in assay buffer to 2× final concentration). The reaction proceeds for 30 minutes at room temperature and is terminated by the addition of 24 μL detection buffer (LANCE™ kit). The assay plate is then incubated for 1 hour at room temperature and time-resolved fluorescence measured on a Perkin Elmer Envision reader or equivalent. The unknown cAMP level is determined by comparing fluorescence levels to a cAMP standard curve.
The non-selective, full agonist β-adrenergic ligand isoproterenol is used at all three receptors to determine maximal stimulation. The human β3 adrenergic receptor (AR) selective ligand (S)—N-[4-[2-[[2-hydroxy-3-(4-hydroxyphenoxy)propyl]amino]ethyl]-phenyl]-4-iodobenzenesulfonamide is used as a control in all assays. Isoproterenol is titrated at a final concentration in the assay of 10^−10 M to 10^−5 M and the selective ligand (S)—N-[4-[2-[[2-hydroxy-3-(4-hydroxyphenoxy)propyl]amino]ethyl]phenyl]-4-iodobenzenesulfonamide is titrated at the β3 receptor at concentration of 10^−10 M to 10^−5 M. Unknown ligands are titrated at all 3β-adrenergic receptor subtypes at a final concentration in the assay of 10^−10 M to 10^−5 M to determine the EC50. The EC50 is defined as the concentration of compound that gives 50% activation of its own maximum. Data are analyzed using Microsoft Excel and Graphpad Prism or an internally developed data analysis software package.
For orientation: Cyclic AMP is a second messenger, typically raised through Gs and lowered through Gi signalling.

The mark [1] stands for this setting: read-out: human β3 functional activity (EC50).
[2] abbreviates: range classes, read-out: Human β3 EC50.

The structures appear in SMILES notation. Structures can show the parent of a compound that is named as a salt. Where two headings read alike, the source gives them in different places.

This passage reports EC50 results from US8618144B2, “Pyrrolidine-derived beta 3 adrenergic receptor agonists” (Merck Sharp & Dohme Corp, priority 2009, dated 2013).

T1 sequence (P13945 whole entry): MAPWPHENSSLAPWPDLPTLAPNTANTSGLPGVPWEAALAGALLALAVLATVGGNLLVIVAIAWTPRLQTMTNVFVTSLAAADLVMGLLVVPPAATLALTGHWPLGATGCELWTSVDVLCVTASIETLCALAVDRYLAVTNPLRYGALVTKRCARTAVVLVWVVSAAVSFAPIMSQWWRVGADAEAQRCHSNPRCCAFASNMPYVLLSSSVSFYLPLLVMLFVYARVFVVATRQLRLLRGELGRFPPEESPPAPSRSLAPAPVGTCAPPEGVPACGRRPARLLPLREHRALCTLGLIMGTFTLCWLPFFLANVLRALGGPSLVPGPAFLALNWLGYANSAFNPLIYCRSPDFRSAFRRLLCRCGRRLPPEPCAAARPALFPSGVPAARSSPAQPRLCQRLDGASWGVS

The EC50 is the concentration at which the effect is half-maximal. On to `CCCCCCNC(=O)Nc1ccc(S(=O)(=O)Nc2ccc(C[C@@H]3CC[C@H]([C@H](O)COc4ccccc4)N3)cc2)cc1` [Example 14, 4-{[(Hexylamino)carbonyl]amino}-N-[4-({(2S,5R)-5-[(1S)-1-hydroxy-2-phenoxyethyl]pyrrolidin-2-yl}methyl)phenyl]benzenesulfonamide trifluoroacetate salt], for which, under setting [1], the EC50 was less than 1 nM.

Regarding `Cc1nc(CC(=O)Nc2ccc(C[C@@H]3CC[C@H]([C@H](O)COc4ccccc4)N3)cc2)c(C)s1` [Example 5], the EC50 under setting [2] was in the range of 1 to 10 nM.

Take `O=S(=O)(Nc1ccc(C[C@@H]2CC[C@H]([C@H](O)COc3ccccc3)N2)cc1)c1ccc(-c2nc(-c3ccc(C(F)(F)F)cc3)cs2)cc1` [Example 12, N-[4-({(2S,5R)-5-[(1S)-1-Hydroxy-2-phenoxyethyl]pyrrolidin-2-yl}methyl)phenyl]-4-{4-[4-(trifluoromethyl)phenyl]-1,3-thiazol-2-yl}benzenesulfonamide trifluoroacetate salt]: the EC50 under setting [1] was less than 10 nM.

Consider `O=S(=O)(Nc1ccc(C[C@@H]2CC[C@H]([C@H](O)COc3ccccc3)N2)cc1)c1ccc(I)cc1` [Example 13], for which the EC50 under setting [1] was less than 10 nM.

In the case of `Nc1nc(CC(=O)Nc2ccc(C[C@H]3CC[C@H]([C@H](O)COc4ccccc4)N3)cc2)cs1` [Example 11, 2-(2-Amino-1,3-thiazol-4-yl)-N-[4-({(2R,5R)-5-[(1S)-1-hydroxy-2-phenoxyethyl]pyrrolidin-2-yl}methyl)phenyl]acetamide bis trifluoroacetate salt], the half-maximal effective concentration (EC50) under setting [1] lay in the range of 100 to 1000 nM.

With `O=C(Cc1nnc(-c2ccccc2)[nH]1)Nc1ccc(C[C@@H]2CC[C@H]([C@H](O)COc3ccccc3)N2)cc1` [Example 6], the EC50 under setting [2] was less than 1 nM.

`Nc1ncn(CC(=O)Nc2ccc(C[C@@H]3CC[C@H]([C@H](O)COc4ccccc4)N3)cc2)n1` [Example 15, 2-(3-Amino-1H-1,2,4-triazol-1-yl)-N-[4-({(2S,5R)-5-[(1S)-1-hydroxy-2-phenoxyethyl]pyrrolidin-2-yl}methyl)phenyl]acetamide trifluoroacetate salt]: the EC50 under setting [1] was less than 1 nM.

As for `Cc1csc(CC(=O)Nc2ccc(C[C@@H]3CC[C@H]([C@H](O)COc4ccccc4)N3)cc2)n1` [Example 3], the 50% effective concentration (EC50) under setting [2] lay in the range of 1 to 10 nM.

Regarding `Nc1nc(CC(=O)Nc2ccc(C[C@@H]3CC[C@H]([C@H](O)COc4ccccc4)N3)cc2)cs1` [Example 1, 2-(2-Amino-1,3-thiazol-4-yl)-N-[4-({(2S,5R)-5-[(1S)-1-hydroxy-2-phenoxyethyl]pyrrolidin-2-yl}methyl)phenyl]acetamide bis-trifluoroacetate salt], under setting [1], the concentration giving a half-maximal response (EC50) is less than 1 nM.
